Results: patent publication US10875852B2, “Heteroaromatic compounds as BTK inhibitors” (Boehringer Ingelheim International GmbH, priority 2012, dated 2020)

Biological target: full-length human His-tagged BTK (Homo sapiens (Human), UniProt Q06187)
Assay: BTK HTRF assay (Cisbio KinEASE-TK)
Assay type: biochemical
Settings: 6 nM BTK, 30 uM ATP, 15 min preincubation
Procedure: An HTRF assay (Cisbio KinEASE-TK cat #62TK0PEC) was performed to quantitate the ability of test compounds to inhibit BTK mediated phosphorylation of substrate. Assays were assembled in 384 well plates where 6 nM of full-length human His-tagged BTK (Life Technologies cat # PV3587) and test compound at varying concentrations were preincubated for 15 minutes at 28° C. Then, 1 uM of TK substrate-biotin and 30 uM ATP were added and incubated for an additional 30 minutes at 28° C.

Chain of full-length human His-tagged BTK (Q06187 whole entry): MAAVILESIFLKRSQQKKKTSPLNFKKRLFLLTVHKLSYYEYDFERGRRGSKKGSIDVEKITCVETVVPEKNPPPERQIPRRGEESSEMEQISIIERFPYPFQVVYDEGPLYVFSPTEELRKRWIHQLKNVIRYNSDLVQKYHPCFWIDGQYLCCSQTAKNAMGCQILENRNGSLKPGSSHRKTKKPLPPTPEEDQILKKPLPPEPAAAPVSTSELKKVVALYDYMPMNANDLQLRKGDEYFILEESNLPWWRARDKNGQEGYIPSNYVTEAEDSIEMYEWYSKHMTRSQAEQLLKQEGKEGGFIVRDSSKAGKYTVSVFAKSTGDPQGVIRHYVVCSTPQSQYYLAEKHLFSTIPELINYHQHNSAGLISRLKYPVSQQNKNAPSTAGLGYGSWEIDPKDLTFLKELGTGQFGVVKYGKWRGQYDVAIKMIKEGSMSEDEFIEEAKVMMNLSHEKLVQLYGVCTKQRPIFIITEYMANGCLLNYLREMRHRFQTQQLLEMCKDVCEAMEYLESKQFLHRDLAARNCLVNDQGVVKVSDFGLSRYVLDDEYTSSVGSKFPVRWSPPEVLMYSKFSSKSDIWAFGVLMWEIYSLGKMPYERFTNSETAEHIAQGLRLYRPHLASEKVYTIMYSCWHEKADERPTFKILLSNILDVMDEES

- IC50: 20 nM
SMILES: C=CC(=O)N1CC[C@]2(C1)C[C@H](n1nc(-c3ccc(OC)cc3Cl)c(C(N)=O)c1N)C2 [Example 159]
